This is an account of results in US5578324A, “Peptide proteinaceous drug nasal powder composition” (Teijin Limited, priority 1993, dated 1996).

Each structure is given as a SMILES string.

Assay [1] in a line: Promotion of nasal absorption of peptide proteinaceous drug. The conditions noted are these: in vivo.
Assay [2] relates to Human Nasal Mucosal Homogenate. The experiment in a line: Inhibitory effect on degradation of peptide proteinaceous drug in human nasal mucosal homogenate. The conditions noted are these: 37° C., HPLC. On the set-up: concentration or dose not given beside the values. The class given is biochemical. The method, then:
A homogenate solution was prepared from human nasal mucosa to give 1 mg/ml of protein. […] The amounts of the peptide proteinaceous drug not yet cleaved after a predetermined time were measured by HPLC to find the amounts of decomposition. The inhibition rates were calculated by the following formula.
Inhibition rate (%)=(A-B)/A×100
A: Amount of peptide proteinaceous drug cleaved when enzyme inhibitor or absorption accelerant of present invention is not added to homogenate
B: Amount of peptide proteinaceous drug cleaved when enzyme inhibitor or absorption accelerant of present invention is added to homogenate

With `NCCCCCC(=O)O` [ε-ACA, ε-Amino caproic acid], the “effect of promoting nasal absorption” value in assay [1] is reported as “no effect of promoting nasal absorption was observed”. Also, the “Inhibitor (%) ACTH” value in assay [2] (degradation of adrenocorticotropic hormone (ACTH)) is listed as 0%. For the same molecule, in assay [2] (degradation of calcitonin gene related peptide (CGRP)), the “Inhibitor (%) CGRP” value stood at 0%. Also, the “Inhibitor (%) GLU” value in assay [2] (degradation of glucagon (GLU)) came out at 0%. Besides, the “Inhibitor (%) GHRH” value in assay [2] (degradation of growth hormone releasing hormone (GHRH)) amounted to 0%. Besides, in assay [2] (degradation of insulin (INS)), the “Inhibitor (%) INS” value stood at 0%. The “Inhibitor (%) LHRH” value in assay [2] (degradation of luteinizing hormone releasing hormone (LHRH)) was 0%. For the same molecule, the “Inhibitor (%) PTH” value in assay [2] (degradation of parathyroid hormone (PTH)) came out at 0%. The “Inhibitor (%) PDGF” value in assay [2] (degradation of platelet-derived growth factor (PDGF)) is 0%. Besides, the “Inhibitor (%) SCT” value in assay [2] (degradation of salmon calcitonin (SCT)) stood at 0%. The “Inhibitor (%) GIF” value in assay [2] (degradation of somatostatin (GIF)) is 0%. Further, the “Inhibitor (%) S.p” value in assay [2] (degradation of substance P (S.p)) is given as 0%.
